Measurements published in patent publication US10709707B2, “Methods of treating ocular conditions” (Oyster Point Pharma, Inc., priority 2016, dated 2020).

Tests used:
[1] = molecular target: a6/a3b2b3 (Homo sapiens, UniProt P17787+P32297+Q15825); experiment: Receptor function a6/a3b2b3, Ca++ flux; assay type: cell-based
[2] = 2-week and 13-week repeated dose TK studies, rat; assay type: in vivo
Procedure: In 2-week and 13-week repeated dose TK studies in rat, animals were dosed orally at 30, 100 or 200 mg/kg/day (2-week study) or at 30, 100 or 300 mg/kg/day (13-week study). […] In the 2-week study, there was a 1.2 to 2.2-fold increase in exposure from Day 1 to 15. In the 13-week study, there was a general increase from Day 1 to 29 and roughly equivalent exposure from Day 29 to 91.

Chain of a6/a3b2b3 (Q15825+P32297 fused with the stated changes): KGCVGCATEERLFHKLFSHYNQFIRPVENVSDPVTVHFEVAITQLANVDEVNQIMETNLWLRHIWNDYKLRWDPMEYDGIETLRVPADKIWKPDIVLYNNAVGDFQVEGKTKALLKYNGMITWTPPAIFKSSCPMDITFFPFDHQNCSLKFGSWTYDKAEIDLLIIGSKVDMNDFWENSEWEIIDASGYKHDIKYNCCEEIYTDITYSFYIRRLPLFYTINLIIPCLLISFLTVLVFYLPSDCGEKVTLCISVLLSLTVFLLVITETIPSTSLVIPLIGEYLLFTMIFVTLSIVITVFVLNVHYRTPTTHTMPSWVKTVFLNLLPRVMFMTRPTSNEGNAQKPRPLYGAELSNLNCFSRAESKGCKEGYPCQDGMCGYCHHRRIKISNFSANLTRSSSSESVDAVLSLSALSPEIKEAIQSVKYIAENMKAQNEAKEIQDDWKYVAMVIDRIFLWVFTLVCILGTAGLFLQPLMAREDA
Chain of a6/a3b2b3 (P17787 26-502): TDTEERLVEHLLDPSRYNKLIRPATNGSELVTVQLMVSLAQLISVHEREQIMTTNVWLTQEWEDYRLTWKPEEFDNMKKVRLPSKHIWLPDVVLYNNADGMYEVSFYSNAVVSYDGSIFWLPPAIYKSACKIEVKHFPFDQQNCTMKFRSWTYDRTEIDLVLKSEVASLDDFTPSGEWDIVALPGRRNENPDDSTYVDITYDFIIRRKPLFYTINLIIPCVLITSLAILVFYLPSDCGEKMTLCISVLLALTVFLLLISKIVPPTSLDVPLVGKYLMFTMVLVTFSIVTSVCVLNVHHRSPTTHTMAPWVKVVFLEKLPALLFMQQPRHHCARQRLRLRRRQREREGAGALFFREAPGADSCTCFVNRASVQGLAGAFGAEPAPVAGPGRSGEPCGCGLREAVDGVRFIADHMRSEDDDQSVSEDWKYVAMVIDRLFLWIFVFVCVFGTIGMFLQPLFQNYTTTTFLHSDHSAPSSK
Chain of a6/a3b2b3 (Q05901 25-458 partner limits assumed): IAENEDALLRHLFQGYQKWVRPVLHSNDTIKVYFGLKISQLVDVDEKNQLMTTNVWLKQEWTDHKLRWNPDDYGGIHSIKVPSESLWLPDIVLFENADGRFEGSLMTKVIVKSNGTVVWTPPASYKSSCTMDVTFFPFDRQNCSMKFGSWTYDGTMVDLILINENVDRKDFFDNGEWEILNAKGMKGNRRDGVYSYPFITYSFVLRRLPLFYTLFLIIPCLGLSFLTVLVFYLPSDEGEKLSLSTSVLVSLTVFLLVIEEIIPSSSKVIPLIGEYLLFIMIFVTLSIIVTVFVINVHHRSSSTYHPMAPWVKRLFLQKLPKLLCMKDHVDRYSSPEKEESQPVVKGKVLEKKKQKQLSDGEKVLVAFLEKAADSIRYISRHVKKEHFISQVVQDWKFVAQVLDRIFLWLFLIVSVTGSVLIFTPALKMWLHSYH

Question: What does the source list for `C(=C\[C@H]1CCNC1)/c1cncnc1` [Compound 1, (R)-5-((E)-2-pyrrolidin-3-ylvinyl)pyrimidine]?
Answer: (Imax) ([1]; Human a6/a3b2b3): 49; IC50 ([1]; Human a6/a3b2b3): 2.8 µM; DC50 ([1]; Human a6/a3b2b3, Ca++ Flux): 0.031 µM; Dmax ([1]; Human a6/a3b2b3, Ca++ Flux): 99%; EC50 ([1]; Human a6/a3b2b3, Ca++ Flux): 0.47 µM; Emax ([1]; Human a6/a3b2b3, Ca++ Flux): 92%; exposure parameters (Cmax and AUC0-24) vs dose ([2]; Days 1 and 15 (2-week), Days 1, 29 and 91 (13-week)): increased roughly in proportion to dose; Tmax ([2]; both sexes, rat, plasma, oral 30-300 mg/kg/day, 2-week and 13-week studies): 0.5 to 2 h; exposure in females compared with males ([2]; both studies): generally higher
